Experimental findings from patent publication US12319929B2, “Compositions and methods for the treatment of Parkinson's disease” (VOYAGER THERAPEUTICS, INC., priority 2018, dated 2025) are described below.

This test concerns patients with motor response fluctuations. Description: UPDRS III AUC response to threshold and suprathreshold IV levodopa infusion. It counts as in vivo, human. Conditions: Baseline before AAV2-hAADC. As to the method: On sequential days, patients received either a threshold (0.6 mg/mL; low-dose) or suprathreshold (1.2 mg/mL; high-dose) infusion of IV levodopa dosed at 1 mL/kg/hr for 2 hours. The order and threshold of IV levodopa dosing was randomized and double-blinded (LHLH, LHHL, HLHL, HLLH).
Oral carbidopa (25 mg) was administered 1-2 hours before, during, and 1-2 hours after the infusion. Participants' motor response was measured by UPDRS III (time to 30% change and duration of 30% responses); bradykinesia was measured by finger tapping rate; and dyskinesia was measured by Abnormal Involuntary Movement Scale (AIMS) scoring. Pharmacokinetics were assessed every 30 minutes after administration of IV levodopa.
Results for Group 1 are shown in FIG. 12a: results for Group 2 are shown in FIG. 12b; and results for Group 3 are shown in FIG. 12c.

As to `N[C@@H](Cc1ccc(O)c(O)c1)C(=O)O` [IV Levodopa, L-3,4-dihydroxyphenylalanine], the “UPDRS III AUC, mean (standard error)” value (Suprathreshold (1.2 mg/kg/hr) IV Levodopa, Group 1 (N = 5)) is given as −72.8 (13.1); the “UPDRS III AUC, mean (standard error)” value (Suprathreshold (1.2 mg/kg/hr) IV Levodopa, Group 2 (N = 5)) is −45.0 (13.5); the “UPDRS III AUC, mean (standard error)” value (Suprathreshold (1.2 mg/kg/hr) IV Levodopa, Group 3 (N=3)) is on record as −41.1 (13.8); the “UPDRS III AUC, mean (standard error)” value (Threshold (0.6 mg/kg/hr) IV Levodopa, Group 1 (N = 5)) is on record as −22.1 (9.7); the “UPDRS III AUC, mean (standard error)” value (Threshold (0.6 mg/kg/hr) IV Levodopa, Group 2 (N = 5)) is recorded as −21.8 (5.9); the “UPDRS III AUC, mean (standard error)” value (Threshold (0.6 mg/kg/hr) IV Levodopa, Group 3 (N=3)) is reported as −16.1 (11.4).
